Common to all, as to format: in vivo
For assay [1], the system named is Wild buckwheat. Nature of the assay: Pre-emergence herbicide test. Particulars: Fallopia convolvulus, read-out: % plant inhibition (Wibw); for inhibition at 1120 g/ha: 1.12 kg/ha. The essentials:
(§1)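 Compound applied pre-emergence directly onto sown seeds in soil, then seeds covered with untreated topsoil. Plants grown in greenhouse with bottom watering. Inhibition (%) recorded visually at about 11 days.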

Assay [2] relates to Yellow nutsedge. Briefly: Pre-emergence herbicide test. Particulars: Cyperus, read-out: % plant inhibition (Yens); for inhibition at 1120 g/ha: 1.12 kg/ha. The essentials:
as §1

The subject of assay [3] is Downy Brome. Briefly: Pre-emergence herbicide test. The conditions noted are these: Bromus tectorum, read-out: % plant inhibition (Dobr); for inhibition at 1120 g/ha: 1.12 kg/ha. The essentials: as §1
The test system of assay [4] is Morningglory. Nature of the assay: Pre-emergence herbicide test. The conditions noted are these: Ipomoea, read-out: % plant inhibition (Mogl); for inhibition at 1120 g/ha: 1.12 kg/ha. In outline: as §1
The subject of assay [5] is Barnyardgrass. Nature of the assay: Pre-emergence herbicide test. Particulars: Echinochloa crus-galli, read-out: % plant inhibition (Bygr); for inhibition at 1120 g/ha: 1.12 kg/ha. The essentials:
as §1

In assay [6] the test system is Velvetleaf. Briefly: Pre-emergence herbicide test. Particulars: Abutilon theophrasti, read-out: % plant inhibition (Vele); for inhibition at 1120 g/ha: 1.12 kg/ha. The essentials: as §1
Assay [7] concerns Indian Mustard. Briefly: Pre-emergence herbicide test. Particulars: Brassica juncea, read-out: % plant inhibition (Inmu); for inhibition at 1120 g/ha: 1.12 kg/ha. In outline:
as §1

For assay [8], the system named is Cocklebur. Nature of the assay: Pre-emergence herbicide test. The conditions noted are these: Xanthium strumarium, read-out: % plant inhibition (Cobu); for inhibition at 1120 g/ha: 1.12 kg/ha. The essentials: as §1
The test system of assay [9] is Seedling johnsongrass. Briefly: Pre-emergence herbicide test. The conditions noted are these: Sorghum halepense, read-out: % plant inhibition (Sejg); for inhibition at 1120 g/ha: 1.12 kg/ha. In outline:
as §1

Assay [10] relates to Annual bluegrass. Briefly: Pre-emergence herbicide test. Particulars: read-out: % plant inhibition (Anbg); for inhibition at 1120 g/ha: 1.12 kg/ha. In outline:
as §1

Assay [11] has as its system Wild buckwheat. Briefly: Post-emergence herbicide test. The conditions noted are these: Fallopia convolvulus, read-out: % plant inhibition (Wibw); for inhibition at 1120 g/ha: 1.12 kg/ha. In outline:
(§2)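 Greenhouse-raised seedlings and perennial propagule shoots, aged 2–3 weeks, receive an atomized spray at 10 psig. The solution or suspension carries roughly 0.4% emulsifier and is applied at 200 gallons/acre; injury is rated as % inhibition after about 11 days.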

Assay [12] has as its system Yellow nutsedge. Nature of the assay: Post-emergence herbicide test. Particulars: Cyperus, read-out: % plant inhibition (Yens); for inhibition at 1120 g/ha: 1.12 kg/ha. The essentials: as §2
Assay [13] has as its system Downy Brome. Nature of the assay: Post-emergence herbicide test. Particulars: Bromus tectorum, read-out: % plant inhibition (Dobr); for inhibition at 1120 g/ha: 1.12 kg/ha. The essentials:
as §2

Assay [14] relates to Morningglory. Briefly: Post-emergence herbicide test. The conditions noted are these: Ipomoea, read-out: % plant inhibition (Mogl); for inhibition at 1120 g/ha: 1.12 kg/ha. The essentials: as §2
The subject of assay [15] is Barnyardgrass. Nature of the assay: Post-emergence herbicide test. Particulars: Echinochloa crus-galli, read-out: % plant inhibition (Bygr); for inhibition at 1120 g/ha: 1.12 kg/ha. The essentials:
as §2

Assay [16] relates to Velvetleaf. Briefly: Post-emergence herbicide test. Particulars: Abutilon theophrasti, read-out: % plant inhibition (Vele); for inhibition at 1120 g/ha: 1.12 kg/ha. In outline:
as §2

The test system of assay [17] is Indian Mustard. Briefly: Post-emergence herbicide test. Particulars: Brassica juncea, read-out: % plant inhibition (Inmu); for inhibition at 1120 g/ha: 1.12 kg/ha. In outline:
as §2

Assay [18] deals with Cocklebur. Briefly: Post-emergence herbicide test. The conditions noted are these: Xanthium strumarium, read-out: % plant inhibition (Cobu); for inhibition at 1120 g/ha: 1.12 kg/ha. The essentials: as §2
Assay [19] has as its system Seedling johnsongrass. Nature of the assay: Post-emergence herbicide test. The conditions noted are these: Sorghum halepense, read-out: % plant inhibition (Sejg); for inhibition at 1120 g/ha: 1.12 kg/ha. In outline: as §2
The subject of assay [20] is Annual bluegrass. Briefly: Post-emergence herbicide test. The conditions noted are these: read-out: % plant inhibition (Anbg); for inhibition at 1120 g/ha: 1.12 kg/ha. In outline:
as §2

`Cn1nc(-c2cc(O)c(Cl)cc2F)c(Cl)c1C(F)(F)Cl` [Compound 329]: the inhibition – broadly, the share of the control response that was lost under treatment – at 1120 g/ha was 100% in the assay on Wild buckwheat [1]; 0% in the assay with Yellow nutsedge [2]; 0% in the assay on Downy Brome [3]; 70% in the assay on Morningglory [4]; 0% in the assay on Barnyardgrass [5]; 100% in the assay on Velvetleaf [6]. In addition, the inhibition at 1120 g/ha in the assay on Indian Mustard [7] is 90%; in the assay with Cocklebur [8] it was 0%; in the assay on Seedling johnsongrass [9] it was 0%; in the assay with Annual bluegrass [10], 0%; in the assay with Wild buckwheat [11], 100%; in the assay on Yellow nutsedge [12], 0%. In addition, the inhibition at 1120 g/ha in the assay with Downy Brome [13] amounted to 90%; with Morningglory [14], 100%; in the assay with Barnyardgrass [15], 90%; with Velvetleaf [16], 100%; in the assay on Indian Mustard [17], 100%; with Cocklebur [18], 90%. Besides, the inhibition at 1120 g/ha in the assay on Seedling johnsongrass [19] and in the assay on Annual bluegrass [20] was 90% each time.

Regarding `Cn1nc(-c2cc(S(=O)(=O)Cl)c(Cl)cc2Cl)c(Cl)c1C(F)(F)F` [Compound 89], the inhibition at 11210 g/ha in the assay with Wild buckwheat [1] (11.21 kg/ha) came out at 30%; with Yellow nutsedge [2] (11.21 kg/ha), 10%; in the assay on Downy Brome [3] (11.21 kg/ha) it was 0%; with Morningglory [4] (11.21 kg/ha), 20%; in the assay on Barnyardgrass [5] (11.21 kg/ha), 0%; with Velvetleaf [6] (11.21 kg/ha), 90%. In addition, the inhibition at 11210 g/ha with Indian Mustard [7] (11.21 kg/ha) amounted to 70%; with Cocklebur [8] (11.21 kg/ha) it was 0%; with Seedling johnsongrass [9] (11.21 kg/ha), 0%; with Annual bluegrass [10] (11.21 kg/ha), 0%; with Wild buckwheat [11] (11.21 kg/ha), 50%; in the assay on Yellow nutsedge [12] (11.21 kg/ha), 0%. Moreover, the inhibition at 11210 g/ha came out at 10% in the assay on Downy Brome [13] (11.21 kg/ha); 100% in the assay with Morningglory [14] (11.21 kg/ha); 20% with Barnyardgrass [15] (11.21 kg/ha); 100% in the assay with Velvetleaf [16] (11.21 kg/ha); 80% with Indian Mustard [17] (11.21 kg/ha); 100% with Cocklebur [18] (11.21 kg/ha). The inhibition at 11210 g/ha with Seedling johnsongrass [19] (11.21 kg/ha) worked out at 70%; in the assay on Annual bluegrass [20] (11.21 kg/ha) it was 10%.

Turning to `Cn1nc(-c2cc(C3OCCO3)c(Cl)cc2F)c(Cl)c1C(F)(F)F` [Compound 100, 4-chloro-3-(4-chloro-5-(1,3-dioxolan-2-yl)-2-fluorophenyl)-1-methyl-5-(trifluoromethyl)-1H-pyrazole], the inhibition at 1120 g/ha stood at 100% in the assay on Wild buckwheat [1]; 0% in the assay on Yellow nutsedge [2]; 100% in the assay on Downy Brome [3]; 80% in the assay with Morningglory [4]; 70% in the assay on Barnyardgrass [5]; 100% in the assay with Velvetleaf [6]. The inhibition at 1120 g/ha in the assay with Indian Mustard [7] was determined as 100%; in the assay on Cocklebur [8], 20%; in the assay with Seedling johnsongrass [9] it was 90%; in the assay with Annual bluegrass [10] it was 90%; in the assay on Wild buckwheat [11] it was 100%; in the assay with Yellow nutsedge [12] it was 20%. The inhibition at 1120 g/ha with Downy Brome [13] worked out at 100%; with Morningglory [14], 100%; in the assay on Barnyardgrass [15], 100%; in the assay with Velvetleaf [16], 100%; in the assay with Indian Mustard [17], 80%; in the assay with Cocklebur [18] it was 80%. For the same molecule, the inhibition at 1120 g/ha with Seedling johnsongrass [19] and with Annual bluegrass [20] was 100% throughout.

On to `Cn1nc(-c2cc(C=NOCC(N)=O)c(Cl)cc2F)c(Cl)c1C(F)(F)F` [Compound 131], for which the inhibition at 1120 g/ha with Wild buckwheat [1] turned out to be 100%; with Yellow nutsedge [2] it was 20%; with Downy Brome [3], 30%; with Morningglory [4] it was 100%; with Barnyardgrass [5] it was 40%; with Velvetleaf [6] it was 100%. The inhibition at 1120 g/ha in the assay on Indian Mustard [7] stood at 90%; with Cocklebur [8] it was 80%; in the assay with Seedling johnsongrass [9], 70%; in the assay on Annual bluegrass [10] it was 0%; in the assay on Wild buckwheat [11], 100%; with Yellow nutsedge [12], 30%. In addition, the inhibition at 1120 g/ha worked out at 20% with Downy Brome [13]; 100% with Morningglory [14]; 0% in the assay on Barnyardgrass [15]; 100% in the assay on Velvetleaf [16]; 40% in the assay on Indian Mustard [17]; 100% with Cocklebur [18]. Further, the inhibition at 1120 g/ha was determined as 50% in the assay with Seedling johnsongrass [19] and 20% in the assay with Annual bluegrass [20].

`CC(C)OC(=O)COc1cc(-c2nn(C)c(C(F)(F)Cl)c2Cl)c(F)cc1Cl` [Compound 285]: the inhibition at 1120 g/ha came out at 80% in the assay with Wild buckwheat [1]; 0% in the assay on Yellow nutsedge [2]; 0% in the assay with Downy Brome [3]; 100% in the assay on Morningglory [4]; 50% with Barnyardgrass [5]; 100% with Velvetleaf [6]. Further, the inhibition at 1120 g/ha in the assay with Indian Mustard [7] is 10%; in the assay on Cocklebur [8] it was 80%; with Seedling johnsongrass [9], 0%; with Annual bluegrass [10], 0%; with Wild buckwheat [11], 100%; in the assay with Yellow nutsedge [12], 40%. Besides, the inhibition at 1120 g/ha in the assay with Downy Brome [13] is 40%; in the assay with Morningglory [14], 100%; in the assay on Barnyardgrass [15], 70%; with Velvetleaf [16] it was 100%; with Indian Mustard [17], 100%; with Cocklebur [18] it was 100%. The inhibition at 1120 g/ha in the assay with Seedling johnsongrass [19] came out at 50%; in the assay on Annual bluegrass [20], 30%.

For the molecule `Cn1nc(-c2cc(OCc3ccc(Cl)s3)c(Cl)cc2F)c(Cl)c1C(F)(F)F` [Compound 252], the inhibition at 1120 g/ha in the assay with Wild buckwheat [1] worked out at 10%; in the assay with Yellow nutsedge [2], 0%; with Downy Brome [3], 60%; with Morningglory [4], 40%; in the assay with Barnyardgrass [5], 20%; in the assay with Velvetleaf [6] it was 20%. The inhibition at 1120 g/ha in the assay on Indian Mustard [7] was determined as 10%; in the assay on Cocklebur [8] it was 30%; in the assay on Seedling johnsongrass [9] it was 60%; with Annual bluegrass [10], 30%; in the assay on Wild buckwheat [11], 100%; in the assay on Yellow nutsedge [12], 20%. Moreover, the inhibition at 1120 g/ha turned out to be 100% in the assay with Downy Brome [13]; 100% in the assay with Morningglory [14]; 90% in the assay on Barnyardgrass [15]; 100% in the assay with Velvetleaf [16]; 100% in the assay with Indian Mustard [17]; 100% in the assay on Cocklebur [18]. In addition, the inhibition at 1120 g/ha came out at 100% in the assay with Seedling johnsongrass [19] and 90% in the assay with Annual bluegrass [20].

In the case of `COCOc1cc(-c2nn(C)c(C(F)(F)F)c2Cl)c(F)cc1Cl` [Compound 308, 4-Chloro-3-(4-chloro-2-fluoro-5-(methoxy-methoxy)phenyl)-1-methyl-5-(trifluoromethyl)-1H-pyrazole], the inhibition at 1120 g/ha in the assay with Wild buckwheat [1] was 100%; with Yellow nutsedge [2], 40%; in the assay with Downy Brome [3], 100%; in the assay on Morningglory [4], 100%; in the assay with Barnyardgrass [5], 100%; in the assay with Velvetleaf [6], 100%. The inhibition at 1120 g/ha in the assay on Indian Mustard [7] was 100%; in the assay on Cocklebur [8], 80%; in the assay with Seedling johnsongrass [9] it was 100%; in the assay with Annual bluegrass [10] it was 100%; with Wild buckwheat [11], 100%; with Yellow nutsedge [12] it was 20%. Also, the inhibition at 1120 g/ha in the assay with Downy Brome [13] is 100%; in the assay with Morningglory [14], 90%; with Barnyardgrass [15] it was 100%; in the assay on Velvetleaf [16] it was 100%; in the assay with Indian Mustard [17], 90%; in the assay on Cocklebur [18], 90%. Further, the inhibition at 1120 g/ha with Seedling johnsongrass [19] and in the assay on Annual bluegrass [20] was 100% in each case.

For the origin of these results see patent US5530126A, “Process for the preparation of substituted 6-(pyrazol-3yl)-1,4-benzoxazin-3-ones” (Monsanto Company, priority 1994, dated 1996).
